Assay results from patent US9884839B2, “Inhibitors of 17Beta-hydroxysteroid dehydrogenases type 1 and type 2” (ElexoPharm GmbH, priority 2014, dated 2018).
Read-outs that look alike come from different tables or passages of the source.

Experiments:
human 17β-HSD1 = molecular target: T1, human 17β-HSD1 (Homo sapiens, UniProt P14061); experiment: Inhibition of human 17β-HSD1 (conversion of [3H]-E1 to E2, HPLC radioflow detection); assay type: biochemical; conditions: read-out: IC50 [nM] h17β-HSD1
T1 construct: For the partial purification of 17β-HSD1, the cytosolic fraction was precipitated with ammonium sulfate; from tissue; host or cells: human placenta, cytosolic fraction, ammonium sulfate precipitate
T1 sequence (P14061 1-328): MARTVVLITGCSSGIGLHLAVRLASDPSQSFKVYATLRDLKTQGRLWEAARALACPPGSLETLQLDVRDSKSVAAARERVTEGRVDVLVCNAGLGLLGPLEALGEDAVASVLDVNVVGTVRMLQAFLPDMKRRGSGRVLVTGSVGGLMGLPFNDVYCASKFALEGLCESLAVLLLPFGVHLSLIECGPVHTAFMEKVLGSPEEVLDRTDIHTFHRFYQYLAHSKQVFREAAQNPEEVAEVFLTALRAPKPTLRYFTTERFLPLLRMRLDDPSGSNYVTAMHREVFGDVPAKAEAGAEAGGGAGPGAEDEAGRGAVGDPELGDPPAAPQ

human 17β-HSD2 = molecular target: T2, human 17β-HSD2 (Homo sapiens, UniProt P37059); experiment: Inhibition of human 17β-HSD2 (conversion of [3H]-E2 to E1); assay type: biochemical; conditions: read-out: IC50 [nM] h17β-HSD2
T2 construct: 17β-HSD2 was obtained from the microsomal fraction; from tissue; host or cells: human placenta, microsomal fraction
T2 sequence (P37059 1-387): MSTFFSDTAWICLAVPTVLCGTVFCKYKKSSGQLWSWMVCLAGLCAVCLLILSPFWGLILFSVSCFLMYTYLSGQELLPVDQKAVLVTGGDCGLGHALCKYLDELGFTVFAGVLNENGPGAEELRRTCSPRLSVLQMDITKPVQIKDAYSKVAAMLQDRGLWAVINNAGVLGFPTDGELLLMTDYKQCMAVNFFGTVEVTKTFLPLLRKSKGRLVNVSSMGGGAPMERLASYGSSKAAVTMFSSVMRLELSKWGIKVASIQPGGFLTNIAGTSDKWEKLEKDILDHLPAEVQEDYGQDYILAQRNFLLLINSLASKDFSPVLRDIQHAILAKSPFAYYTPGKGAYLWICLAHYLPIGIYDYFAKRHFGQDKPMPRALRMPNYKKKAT

mouse 17β-HSD1 = molecular target: T3, mouse 17β-HSD1 (Mus musculus, UniProt P51656); experiment: Inhibition of mouse 17β-HSD1 (recombinant, HEK293 lysate); assay type: biochemical
T3 construct: made in house; host or cells: HEK293 cells, transient transfection; 1,000 g supernatant of the cell lysate
T3 sequence (P51656 1-344): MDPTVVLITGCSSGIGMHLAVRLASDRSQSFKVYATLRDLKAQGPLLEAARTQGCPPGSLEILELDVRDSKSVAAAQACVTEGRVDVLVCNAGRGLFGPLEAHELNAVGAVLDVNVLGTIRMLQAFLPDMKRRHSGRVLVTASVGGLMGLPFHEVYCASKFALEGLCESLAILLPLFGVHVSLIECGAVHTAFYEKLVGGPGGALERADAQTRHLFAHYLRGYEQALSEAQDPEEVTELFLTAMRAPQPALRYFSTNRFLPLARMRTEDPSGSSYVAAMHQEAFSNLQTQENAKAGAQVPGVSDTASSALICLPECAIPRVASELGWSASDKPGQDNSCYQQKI

mouse 17β-HSD2 = molecular target: T4, mouse 17β-HSD2 (Mus musculus, UniProt P51658); experiment: Inhibition of mouse 17β-HSD2 (liver microsomal fraction); assay type: biochemical; conditions: for inhibition at 1 µM: read-out: Inhibition @ 1 μM m17β-HSD2; for IC50: read-out: IC50 m17β-HSD2
T4 construct: The pellet fractions containing the microsomal 17β-HSD2 were used for the determination of E1 formation; from tissue; host or cells: mouse liver, microsomal fraction
T4 sequence (P51658 1-381): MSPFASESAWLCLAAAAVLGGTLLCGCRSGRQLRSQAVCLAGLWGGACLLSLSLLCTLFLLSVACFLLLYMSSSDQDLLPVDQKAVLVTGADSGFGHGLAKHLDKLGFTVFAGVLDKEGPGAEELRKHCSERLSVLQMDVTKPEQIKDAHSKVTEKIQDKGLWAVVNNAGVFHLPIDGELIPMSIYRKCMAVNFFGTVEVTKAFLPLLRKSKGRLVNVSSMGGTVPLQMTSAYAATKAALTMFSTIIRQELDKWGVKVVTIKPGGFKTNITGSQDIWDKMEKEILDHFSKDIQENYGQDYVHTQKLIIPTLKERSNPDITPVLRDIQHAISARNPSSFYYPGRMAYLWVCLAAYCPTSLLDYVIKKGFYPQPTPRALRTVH

rat 17β-HSD1 = molecular target: T5, rat 17β-HSD1 (Rattus norvegicus, UniProt P51657); experiment: Inhibition of rat 17β-HSD1 (recombinant, HEK293 lysate); assay type: biochemical; conditions: read-out: % Inhibition r17β-HSD1; for inhibition at […]: Cmpd conc. 250 nM
T5 construct: made in house; host or cells: HEK293 cells, transient transfection; 1,000 g supernatant of the cell lysate
T5 sequence (P51657 1-344): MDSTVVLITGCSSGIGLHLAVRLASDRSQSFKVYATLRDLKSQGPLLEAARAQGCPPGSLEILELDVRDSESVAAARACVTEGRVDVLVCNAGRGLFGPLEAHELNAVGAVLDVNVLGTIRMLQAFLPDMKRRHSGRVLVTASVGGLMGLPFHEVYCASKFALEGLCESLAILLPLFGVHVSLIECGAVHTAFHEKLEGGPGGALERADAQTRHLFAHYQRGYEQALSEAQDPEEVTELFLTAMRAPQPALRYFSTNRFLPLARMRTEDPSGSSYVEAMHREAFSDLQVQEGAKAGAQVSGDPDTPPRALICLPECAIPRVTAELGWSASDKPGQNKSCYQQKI

rat 17β-HSD2 = molecular target: T6, rat 17β-HSD2 (Rattus norvegicus, UniProt Q62730); experiment: Inhibition of rat 17β-HSD2 (liver microsomal fraction); assay type: biochemical; conditions: read-out: % Inhibition r17β-HSD2
T6 construct: The pellet fractions containing the microsomal 17β-HSD2 were used for the determination of E1 formation; from tissue; host or cells: rat liver, microsomal fraction
T6 sequence (Q62730 1-381): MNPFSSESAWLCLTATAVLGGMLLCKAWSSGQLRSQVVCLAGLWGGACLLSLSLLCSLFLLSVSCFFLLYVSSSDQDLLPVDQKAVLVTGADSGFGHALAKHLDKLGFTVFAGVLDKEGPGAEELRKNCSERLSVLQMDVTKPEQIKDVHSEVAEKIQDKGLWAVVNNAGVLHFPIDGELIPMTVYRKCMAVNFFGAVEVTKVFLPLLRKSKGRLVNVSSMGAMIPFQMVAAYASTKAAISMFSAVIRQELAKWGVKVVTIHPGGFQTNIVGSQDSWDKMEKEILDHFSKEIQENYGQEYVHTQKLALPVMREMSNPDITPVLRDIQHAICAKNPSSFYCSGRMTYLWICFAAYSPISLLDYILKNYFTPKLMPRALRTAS

in vitro = conditions: human, pooled human liver S9 fraction
[1] = human liver S9, 1 mg/mL; unit not given
[2] = human placental cytosolic enzyme, E1 500 nM, NADH, Tables 1, 4-11
[3] = read-out: Inhibition @ 1 μM m17β-HSD1
[4] = Tables 4 and 6, no % sign and concentration not given, Table 1 lists these compounds as inhibition @ 1 μM, read-out: IC50 [nM] or % inhibition m17β-HSD1 (bare number, kind not marked)

Row | Structure (SMILES) | IC50 (human 17β-HSD1; [2]) [nM] | IC50 (human 17β-HSD2) [nM] | inhibition at 1 µM (mouse 17β-HSD1; [3]) [%] | inhibition at 1 µM (mouse 17β-HSD2) [%] | inhibition at […] (rat 17β-HSD1) [%] | inhibition at […] (rat 17β-HSD2) [%] | half-life at 1 µM (in vitro) [min] | CLint [1] | IC50 (human 17β-HSD1) [nM] | IC50 (mouse 17β-HSD1; recombinant mouse enzyme, E1 10 nM, NADPH, read-out: IC50 m17β-HSD1) [nM] | inhibition at 0.5 µM (rat 17β-HSD1; Cmpd conc. 500 nM) [%] | inhibition at 0.5 µM (rat 17β-HSD2) [%] | inhibition at 1 µM (mouse 17β-HSD1; [4]) [%] | IC50 (mouse 17β-HSD2) [nM]
1 | COc1c(C)cc(-c2ccc(C(=O)c3c(F)ccc(O)c3F)s2)cc1C [Compound 16, (2,6-Difluoro-3-hydroxy-phenyl)-[5-(4-methoxy-3,5-dimethyl-phenyl)-thiophen-2-yl]-methanone] | 0.9 | 18 | 59 | 55 | 39 | 27 | 8.5 | 81.3 |  |  |  |  |  | 
2 | COc1c(Cl)cc(-c2ccc(C(=O)c3c(F)ccc(O)c3F)s2)cc1CN1CCNCC1 [Compound 30, [5-(3-Chloro-4-methoxy-5-piperazin-1-ylmethyl-phenyl)-thiophen-2-yl]-(2,6-difluoro-3-hydroxy-phenyl)-methanone] | 4.7 | 26 | 25 | 41 |  |  | 6.5 | 106.8 |  |  | 51 | 55 |  | 

Continued, values first:

Row | IC50 (human 17β-HSD1; [2]) [nM] | IC50 (human 17β-HSD2) [nM] | inhibition at 1 µM (mouse 17β-HSD1; [3]) [%] | inhibition at 1 µM (mouse 17β-HSD2) [%] | inhibition at […] (rat 17β-HSD1) [%] | inhibition at […] (rat 17β-HSD2) [%] | half-life at 1 µM (in vitro) [min] | CLint [1] | IC50 (human 17β-HSD1) [nM] | IC50 (mouse 17β-HSD1; recombinant mouse enzyme, E1 10 nM, NADPH, read-out: IC50 m17β-HSD1) [nM] | inhibition at 0.5 µM (rat 17β-HSD1; Cmpd conc. 500 nM) [%] | inhibition at 0.5 µM (rat 17β-HSD2) [%] | inhibition at 1 µM (mouse 17β-HSD1; [4]) [%] | IC50 (mouse 17β-HSD2) [nM] | Structure (SMILES)
3 |  | 7 |  | 76 | 63 | 35 | 2.6 | 272.7 | 0.4 | 397 |  |  |  |  | Cc1cc(-c2ccc(C(=O)c3c(F)ccc(O)c3F)s2)cc(C)c1O [Compound 24, (2,6-Difluoro-3-hydroxy-phenyl)-[5-(4-hydroxy-3,5-dimethyl-phenyl)-thiophen-2-yl]-methanone]
4 | 49 | 5 | 9 | 80 | 46 | 100 |  |  |  |  |  |  | 13 | 177 | Nc1cccc(-c2ccc(C(=O)c3cc(F)c(F)c(O)c3F)s2)c1 [Compound 35, [5-(3-Aminophenyl)thiophen-2-yl](2,4,5-trifluoro-3-hydroxyphenyl)methanone]
5 |  | 1.4 | 28 |  | 58 | 86 |  |  | 7.2 |  |  |  | 27.5 | 326 | O=C(c1ccc(-c2ccc(F)cc2F)s1)c1cc(F)c(F)c(O)c1F [Compound 40, [5-(2,4-Difluoro-phenyl)-thiophen-2-yl]-(2,4,5-trifluoro-3-hydroxy-phenyl)-methanone]
